Results from patent US8575100B2, “Tc and Re labeled radioactive glycosylated octreotide derivatives” (Mallinckrodt LLC, priority 2001, dated 2013).

How the values were obtained:
[1] = Determination of lipophilicity (octanol/PBS); assay type: physicochemical; details: octanol/PBS pH 7.4; radiolabeled peptide; n=6
Protocol: To a solution of app. 300000 cpm of radiolabeled peptide in […] of PBS (pH 7.4), […] of octanol were added (n=6). Vials were vortexed for 3 min and then centrifuged at 15000 rpm for 6 min. Aliquots of […] of PBS and octanol were measured in a γ-Counter.

AR42J-cells (SSTR2) [2] = test: Internalization of radioligands in AR42J cells; details: for internalised ligand / internalisation rate (% internalised ligand/% surface-bound ligand): 60 min incubation; for internalised ligand: normalized to the reference [125I]TOC; for internalisation rate (% internalised ligand/% surface-bound ligand): ratio normalized to the reference [125I]TOC
Protocol: (§1) The cells were incubated with the radioligand for up to 120 min (n=3). At each time point the activity in the supernatant, the surface-bound and the internalized activity were determined and normalized to the values of TOC. Externalization and recycling was studied after an incubation time of 120 min over 2 h. Specificity of ligand binding was studied in a competition experiment with […] Sandostatin.
(§2) Internalisation and externalisation experiments were performed using the sst2 expressing rat pancreatic tumor cell line AR42J. Free, surface bound and internalised radioactivity were determined after 10, 30, 60, 90 and 120 min. of incubation with the radioligands at 37° C. In the externalisation experiments allowing ligand recycling, the fraction of radioactivity released into the supernatant during 10, 30, 60, 90 and 120 min as well as the radioactivity remaining in the cells were determined. We also measured the activity released during 5 subsequent incubations (10, 20 and 3×30 min) with intermediate changes of the medium (limited recycling).
Coupling of glucose (Gluc) and maltotriose (Mtr) to N^α-Lys of N^ε-(Boc-His(Boc))Lys^0-Tyr^3-Lys^5(Dde)-octreotide (protected K(H)TOC) and final deprotection yielded Gluc- and Mtr-K(H)TOC. ^99mTc-labeling was carried out using [^99mTc(H2O)3(CO)3]^+. […] Biodistribution was evaluated in nude mice bearing AR42J tumors at 0.5 and 2 h p.i (n=4).
N^ε(Boc-His(Boc))Lys^0-Tyr^3-Lys^5 (Dde)-octreotide (protected K(H)TOC) was synthesized using standard Fmoc-chemistry. […] Tc-99m-labeling was carried out using the organometallic aquaion [^99mTc (H2O)3 (CO)3]^+(1). Internalization and externalization studies (<120 min) were performed for both compounds using the SSTR2 expressing cell line AR42J. […] Biodistribution of intravenously administered [^99mTc]Gluc-K(H)TOC and [^99mTc]Mtr-K(H)TOC was evaluated in nude mice bearing AR42J rat pancreatic tumors at 30 and 120 min p.i(n=4).
Six-well plates with a cell population of 8×10^5-5×10^6 AR42J-cells per well were incubated at 37° C. with fresh culture medium (RPMI 1640, 1% BSA, 2 mM L-glutamine) for 1 h prior to the experiment. Then app. […] After incubating for 10, 30, 60, 90 or 120 min. at 37° C. the supernatant was collected and the cells were washed once with 1 ml of cold medium. The supernatant was pooled with the supernatant of the previous step. To remove receptor bound (acid releasable) radioactivity the cells were incubated at 37° C. with 1 ml of 0.02 M NaOAc (acid wash). After 10 min. the supernatant was collected, the cells were washed once with 1 ml of 0.02 M NaOAc and the supernatant was again pooled with the supernatant of the previous step. Then the cells were extracted with 1 ml of 1 N NaOH and the wells were rinsed once with PBS. This pooled fraction represents internalized radioligand. The activity in the NaOH-fraction as well as in the supernatant- and in the acid wash-fractions was counted in a γ-Counter.

AR42J-cells (SSTR2) [3] = test: Externalization and recycling of radioligands in AR42J cells; assay type: cell-based, rat; details: for externalisation from the cell (in words): upon incubation up to 120 min; for extracellularly located radioactivity compared to the experiment without recycling: externalization experiment that allowed recycling
Protocol: as §1, §2
As described for the internalization studies, the six-well plates were incubated at 37° C. with fresh culture medium (RPMI 1640, 1% BSA, 2 mM L-Glutamine) for 1H prior to the experiment. Then app. […] After incubating for 120 min. at 37° C., the supernatant was collected and the cells were washed once with 1 ml of cold medium. The supernatant was pooled with the supernatant of the previous step. To collect externalized radioactivity the cells were then incubated at 37° C. with 1 ml of culture medium. After 10, 30, 60, 90 and 120 minutes respectively, the supernatant was collected, the cells were washed once with 1 ml of culture medium and the supernatant was again pooled with the supernatant of the previous step. Then the cells were extracted with 1 ml of 1 N NaOH and the wells were rinsed once with PBS. This pooled fraction represents radioligand still located in the cell. The activity in the NaOH-fraction as well as in the supernatant- and in the externalisation-fractions was counted in a γ-Counter.
As described for the previous experiment, a six-well plate was incubated for 120 min. at 37° C. with radioligand. The supernatant was collected and the cells were washed once with 1 ml of cold medium. The supernatant was pooled with the supernatant of the previous step. To collect externalized radioactivity the cells were then incubated at 37° C. with 1 ml of culture medium. After 10 min. the supernatant was collected and the cells were again incubated with 1 ml of culture medium for another 20 min. at 37° C. The supernatant was collected and the cells were three more times incubated with 1 ml of culture medium for 30 min. at 37° C. Then the cells were extracted with 1 ml of 1 N NaOH and the wells were rinsed once with PBS. This pooled fraction represents radioligand still located in the cell. The activity in the NaOH-fraction as well as in the externalisation-fractions at all time points was counted in a […].

## (1-deoxy-D-fructosyl)-Lys^0Nε-His)-Tyr^3-octreotide [S1-Lys^0(His)TOC]
[1]
  log Pow: log Pow = −0.673 ± 0.064

## Na-(1-deoxy-D-fructosyl)-Lys^0(Nε-His [^99mTc (H2O)(CO)3]+)-Tyr^3-octreotide [[^99mTc]Gluc-K^0(H)TOC]
AR42J-cells (SSTR2) [2]
  internalised ligand: 234 ± 24
  internalisation rate (% internalised ligand/% surface-bound ligand): 171 ± 29
AR42J-cells (SSTR2) [2]; Example 2, time not given
  increase of internalisation by a factor compared to the reference [125I]TOC: 2.3±0.8
AR42J-cells (SSTR2) [2]; at 2 h (120 min)
  intracellular activity levels, times higher than [125I]TOC: 2.3±0.2 times
AR42J-cells (SSTR2) [3]
  externalisation from the cell (in words): remains trapped within the cell up to 120 min
AR42J-cells (SSTR2) [3]; listed as [^99mTc]Gluc-K(H)TOC
  externalisation from the cell (in words): almost stable up to 2h
AR42J-cells (SSTR2) [3]; within 120 min, recycling allowed
  retention in the cell under recycling conditions: nearly quantitative retention

## [^125I]Tyr^3-octreotate [[^125I]TOCA]
AR42J-cells (SSTR2) [2]
  surface availability (% surface-bound ligand/% free radioligand): 182 ± 6
  internalised ligand: 204 ± 7
  internalisation rate (% internalised ligand/% surface-bound ligand): 140 ± 8
AR42J-cells (SSTR2) [2]; after 2 h of incubation, normalized to TOC
  amount of internalized ligand [% internalized TOC]: 154%
AR42J-cells (SSTR2) [2]; compared to TOC
  internalization rate (internalized/surface bound act.) increase: 1.4 fold
  surface concentration (availability on the cell surface) increased by a factor compared to TOC: 2.1
AR42J-cells (SSTR2) [3]; printed as a fraction
  extracellularly located radioactivity compared to the experiment without recycling: about ⅔

## [^125I]Tyr^3-octreotide [[^125I]TOC]
AR42J-cells (SSTR2) [2]
  internalised ligand: 100
  internalisation rate (% internalised ligand/% surface-bound ligand): 100
AR42J-cells (SSTR2) [3]
  extracellularly located radioactivity compared to the experiment without recycling: about 80%
  externalisation from the cell (in words): rapidly externalised
AR42J-cells (SSTR2) [3]; within 2 h (120 min)
  decrease of intracellular activity: about 50%
